Test results taken from ChEMBL document CHEMBL1201862, “PubChem BioAssay data set” (2004).
Calls of active or inactive are those of the source.

Columns and labels:
Fatty acid synthase [1] = target: T1, Fatty acid synthase (Homo sapiens, UniProt P49327); assay: inhibition of human FAS-TE enzyme activity – biochemical, kinetic fluorescence intensity, dose response (AID 624326); assay type: functional;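 note: rate of fluorescence rise from hydrolysis of a fluorogenic O-methyl fluorescein ester substrate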
[2] = target: T2, Heat shock factor protein 1 (Mus musculus, UniProt P38532); assay: enhancement of HSF1-driven luciferase signal – cell-based, NIH3T3, luminescence, dose retest, confirmation (AID 435004); assay type: functional;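 note: stress induced by proteasome inhibitor MG132 added 30 min after compound; luciferase reporter driven by HSF1 response element in NIH3T3 cells; actives raise luminescence as potentiators of the MG132 stress response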
T2 sequence (P38532 whole entry): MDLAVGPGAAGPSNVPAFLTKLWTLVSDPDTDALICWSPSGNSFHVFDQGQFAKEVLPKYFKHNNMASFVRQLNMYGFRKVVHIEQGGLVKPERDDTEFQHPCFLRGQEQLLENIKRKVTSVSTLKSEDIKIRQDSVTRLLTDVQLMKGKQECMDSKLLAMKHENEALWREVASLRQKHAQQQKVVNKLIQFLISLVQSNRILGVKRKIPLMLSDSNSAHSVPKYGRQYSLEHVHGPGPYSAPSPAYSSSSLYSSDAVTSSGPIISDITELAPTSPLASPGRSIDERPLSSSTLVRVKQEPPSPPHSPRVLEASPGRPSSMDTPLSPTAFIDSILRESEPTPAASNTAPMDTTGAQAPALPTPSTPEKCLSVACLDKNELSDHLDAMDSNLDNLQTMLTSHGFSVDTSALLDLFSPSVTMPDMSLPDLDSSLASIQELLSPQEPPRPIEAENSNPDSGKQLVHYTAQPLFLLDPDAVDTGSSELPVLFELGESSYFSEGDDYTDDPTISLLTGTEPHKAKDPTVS

Protein skinhead-1 = target: T3, Protein skinhead-1 (Caenorhabditis elegans, UniProt P34707); assay type: functional
T3 sequence (P34707 whole entry): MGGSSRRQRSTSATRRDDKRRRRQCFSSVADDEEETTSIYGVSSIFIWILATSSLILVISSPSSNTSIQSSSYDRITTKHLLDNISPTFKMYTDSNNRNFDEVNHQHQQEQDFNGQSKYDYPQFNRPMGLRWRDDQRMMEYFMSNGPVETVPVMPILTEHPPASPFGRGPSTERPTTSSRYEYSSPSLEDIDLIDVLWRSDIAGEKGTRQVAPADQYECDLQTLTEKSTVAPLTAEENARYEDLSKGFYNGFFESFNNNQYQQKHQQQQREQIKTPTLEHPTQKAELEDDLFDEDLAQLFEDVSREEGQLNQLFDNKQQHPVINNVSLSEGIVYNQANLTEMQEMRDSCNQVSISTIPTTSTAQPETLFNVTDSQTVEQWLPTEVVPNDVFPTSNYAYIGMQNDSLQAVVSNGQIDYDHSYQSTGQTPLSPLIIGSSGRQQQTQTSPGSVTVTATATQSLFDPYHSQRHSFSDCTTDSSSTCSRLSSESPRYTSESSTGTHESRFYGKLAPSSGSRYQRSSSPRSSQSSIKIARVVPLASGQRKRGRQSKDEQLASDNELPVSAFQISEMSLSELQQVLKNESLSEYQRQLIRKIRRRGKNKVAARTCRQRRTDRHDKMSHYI

Fatty acid synthase [3] = target: T1, Fatty acid synthase; assay: inhibition of human FAS-TE enzyme activity – biochemical, endpoint fluorescence intensity, uHTS hits, dose response (AID 624327); assay type: functional;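 note: fluorescence from hydrolysis of an O-methyl fluorescein acyl ester substrate by the enzyme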
[4] = P. falciparum Dd2 growth inhibitors, dose response, SYBR Green, cherry-picked samples (AID 1159567); assay type: functional, cell-based
Cytochrome P450 1A2 = target: T4, Cytochrome P450 1A2 (Homo sapiens, UniProt P05177);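 note: PubChem cytochrome P450 panel assay, CYP1A2 panel member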
T4 sequence (P05177 whole entry): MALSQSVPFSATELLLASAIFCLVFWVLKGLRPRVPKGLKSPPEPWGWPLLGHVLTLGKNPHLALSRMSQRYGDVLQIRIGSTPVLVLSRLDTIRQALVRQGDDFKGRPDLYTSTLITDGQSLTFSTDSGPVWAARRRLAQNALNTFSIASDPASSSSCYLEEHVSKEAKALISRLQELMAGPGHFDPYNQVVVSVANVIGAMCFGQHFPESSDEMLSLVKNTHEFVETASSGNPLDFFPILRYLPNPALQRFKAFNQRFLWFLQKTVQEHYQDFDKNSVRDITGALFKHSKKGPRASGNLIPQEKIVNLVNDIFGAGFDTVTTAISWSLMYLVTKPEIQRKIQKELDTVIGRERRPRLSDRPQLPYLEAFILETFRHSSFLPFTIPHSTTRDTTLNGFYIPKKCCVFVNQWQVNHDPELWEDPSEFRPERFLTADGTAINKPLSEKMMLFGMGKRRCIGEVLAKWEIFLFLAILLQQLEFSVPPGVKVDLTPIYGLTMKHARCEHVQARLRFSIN

T1 sequence (P49327 whole entry): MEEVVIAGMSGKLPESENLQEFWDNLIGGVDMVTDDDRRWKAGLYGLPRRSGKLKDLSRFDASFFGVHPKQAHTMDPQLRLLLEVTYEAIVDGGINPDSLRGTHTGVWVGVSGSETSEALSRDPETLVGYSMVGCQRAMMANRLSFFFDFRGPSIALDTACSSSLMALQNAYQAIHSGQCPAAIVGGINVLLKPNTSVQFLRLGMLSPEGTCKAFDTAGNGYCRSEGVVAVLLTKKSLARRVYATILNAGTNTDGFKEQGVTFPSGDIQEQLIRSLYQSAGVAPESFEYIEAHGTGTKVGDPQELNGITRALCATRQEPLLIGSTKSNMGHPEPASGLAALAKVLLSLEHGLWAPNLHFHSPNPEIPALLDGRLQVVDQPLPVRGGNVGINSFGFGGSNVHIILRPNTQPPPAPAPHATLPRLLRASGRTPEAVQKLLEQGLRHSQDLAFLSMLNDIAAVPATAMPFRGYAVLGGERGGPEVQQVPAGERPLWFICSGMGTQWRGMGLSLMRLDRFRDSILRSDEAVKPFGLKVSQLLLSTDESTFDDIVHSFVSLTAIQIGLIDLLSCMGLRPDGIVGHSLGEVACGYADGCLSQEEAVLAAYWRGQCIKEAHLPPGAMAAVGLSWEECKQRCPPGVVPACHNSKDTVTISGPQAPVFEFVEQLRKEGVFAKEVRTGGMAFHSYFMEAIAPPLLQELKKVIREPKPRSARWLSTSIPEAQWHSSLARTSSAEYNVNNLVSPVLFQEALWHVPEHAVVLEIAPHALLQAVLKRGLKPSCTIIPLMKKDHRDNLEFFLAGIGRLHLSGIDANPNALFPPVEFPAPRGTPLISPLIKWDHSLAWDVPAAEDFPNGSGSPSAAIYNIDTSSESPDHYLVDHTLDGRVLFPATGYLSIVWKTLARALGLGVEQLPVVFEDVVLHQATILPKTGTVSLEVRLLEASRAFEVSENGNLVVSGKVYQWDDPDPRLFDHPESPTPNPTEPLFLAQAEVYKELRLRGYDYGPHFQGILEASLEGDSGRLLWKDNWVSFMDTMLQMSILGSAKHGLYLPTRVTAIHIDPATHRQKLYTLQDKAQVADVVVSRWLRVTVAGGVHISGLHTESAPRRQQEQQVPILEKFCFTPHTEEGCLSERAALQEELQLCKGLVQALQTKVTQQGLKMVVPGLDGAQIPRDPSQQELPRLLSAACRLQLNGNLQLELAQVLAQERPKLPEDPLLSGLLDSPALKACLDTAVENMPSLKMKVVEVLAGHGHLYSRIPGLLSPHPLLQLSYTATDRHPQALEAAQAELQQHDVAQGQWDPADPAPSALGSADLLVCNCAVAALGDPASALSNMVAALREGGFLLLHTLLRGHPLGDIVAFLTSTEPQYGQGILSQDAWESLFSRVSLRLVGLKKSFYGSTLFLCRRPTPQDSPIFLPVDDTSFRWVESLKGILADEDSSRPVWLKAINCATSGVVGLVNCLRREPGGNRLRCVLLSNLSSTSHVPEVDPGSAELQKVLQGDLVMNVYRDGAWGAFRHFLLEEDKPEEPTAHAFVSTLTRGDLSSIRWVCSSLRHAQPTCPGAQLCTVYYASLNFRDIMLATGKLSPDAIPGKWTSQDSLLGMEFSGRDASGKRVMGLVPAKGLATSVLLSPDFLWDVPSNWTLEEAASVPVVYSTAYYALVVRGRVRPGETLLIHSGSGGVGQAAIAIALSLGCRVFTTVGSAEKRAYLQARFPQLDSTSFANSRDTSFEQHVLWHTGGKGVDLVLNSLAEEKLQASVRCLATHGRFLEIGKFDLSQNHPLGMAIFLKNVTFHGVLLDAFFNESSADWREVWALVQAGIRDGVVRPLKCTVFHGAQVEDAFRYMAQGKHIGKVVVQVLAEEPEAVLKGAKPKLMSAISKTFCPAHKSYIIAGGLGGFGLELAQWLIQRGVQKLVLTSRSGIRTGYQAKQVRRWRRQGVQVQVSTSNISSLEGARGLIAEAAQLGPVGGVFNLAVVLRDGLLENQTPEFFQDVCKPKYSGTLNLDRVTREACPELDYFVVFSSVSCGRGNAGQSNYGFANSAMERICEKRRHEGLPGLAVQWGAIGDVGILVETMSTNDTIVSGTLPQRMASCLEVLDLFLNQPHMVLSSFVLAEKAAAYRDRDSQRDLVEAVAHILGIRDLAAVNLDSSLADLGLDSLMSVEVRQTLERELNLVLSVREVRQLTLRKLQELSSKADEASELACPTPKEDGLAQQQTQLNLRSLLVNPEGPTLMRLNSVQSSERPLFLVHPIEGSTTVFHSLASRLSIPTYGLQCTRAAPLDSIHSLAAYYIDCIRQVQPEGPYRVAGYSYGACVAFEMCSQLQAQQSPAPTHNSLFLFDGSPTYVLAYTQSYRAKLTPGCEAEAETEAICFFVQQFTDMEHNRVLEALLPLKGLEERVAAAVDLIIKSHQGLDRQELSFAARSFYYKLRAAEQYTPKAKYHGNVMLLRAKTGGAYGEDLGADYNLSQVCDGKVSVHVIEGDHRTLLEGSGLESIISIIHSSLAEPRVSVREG

Row | Structure (SMILES) | IC50 (Fatty acid synthase [1]) | EC50 [2] | IC50 (Fatty acid synthase [3]) | also measured
1 | O=C(CN1C(=O)c2cccc([N+](=O)[O-])c2C1=O)N1CCc2ccccc2C1 | 9.41 µM (active) | – | – | –
2 | CC(=O)Nc1ccc(N/C=C/C(=O)C(C)(C)C)cc1 | – | > 260 µM (inactive) | – | –
3 | Clc1ccc(OCc2cnc(Cl)s2)cc1 | – | – | – | IC50 (Protein skinhead-1): 13.2 µM (active)
4 | O=C(NCCCc1ccccc1)c1cc([N+](=O)[O-])ccc1Cl | 3.28 µM (active) | – | 1.1 µM (active) | –
5 | N#C[C@@H]1[C@H](c2ccccc2C2=CCCCC2)[C@@H](CO)N1S(=O)(=O)c1ccccc1 | – | – | – | AC50 [4]: 15 µM (active)
6 | CC1CCCN(S(=O)(=O)c2ccc(NC(=O)Cc3ccc(S(=O)(=O)N4CCOCC4)s3)cc2)C1 (stereo not drawn) | 9.35 µM (active) | – | 7.85 µM (active) | –
7 | O=C(COC(=O)c1cc([N+](=O)[O-])ccc1N1CCOCC1)NC1CCCCC1 | 0.266 µM (active) | – | 0.321 µM (active) | –
8 | COc1cccc(Sc2ccccc2/C=N/NC(N)=O)c1 | – | > 260 µM (inactive) | – | –
9 | CC1CCCCN1C(=O)COC(=O)c1cc([N+](=O)[O-])ccc1N1CCOCC1 (stereo not drawn) | 10.9 µM (active) | – | 9.09 µM (active) | –
10 | Cc1cccc(/C=N\NC(=O)c2csnn2)c1 | – | > 260 µM (inconclusive) | – | –
11 | CCn1c(S)nnc1CC(C)C | – | > 260 µM (inactive) | – | AC50 (Cytochrome P450 1A2): 22.4 µM (inconclusive)
12 | CCOC(=O)C1CCN(C(=O)c2cc3cc4ccc(C)cc4nc3o2)CC1 | 12.2 µM (active) | – | 11.3 µM (active) | –
13 | CCCCSc1nc(O)c(C(=O)OCC)cc1C#N | – | – | – | IC50 (Protein skinhead-1): > 100 µM (inactive)
14 | FCCCOc1ccc(/C=N/OCc2ccc(Cl)cc2)cc1 | – | – | – | IC50 (Protein skinhead-1): > 100 µM (inactive)
15 | COc1ccc(Cl)cc1N(CC(=O)Nc1ccccc1SC)S(C)(=O)=O | – | > 260 µM (inactive) | – | –
16 | CC(C)CCNC(=O)C1CC(c2cccc([N+](=O)[O-])c2)=NO1 (stereo not drawn) | 11 µM (active) | – | 8.3 µM (active) | –
